Data from the supplement of paper PMC4862054.

Assays:
Test in all cases: normalised response (% of control), CellTox Green; higher = less cell death (100 = DMSO, 0 = benzethonium chloride kill control)
Conditions in all cases: incubation time: 72 h
[1] = system: MDA-MB-468
Method in brief: (§1)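 The table gives the normalised signal for a single concentration in each entry. Breast cancer cell lines were seeded (20 µl suspension) into 384-well plates holding compound at 5 concentrations in 10-fold steps over a compound-specific 10,000-fold range and incubated 72 h, then read for CellTox Green fluorescence (485/520 nm) and CellTiter-Glo luminescence. Normalisation on each plate used 0.1 % DMSO (100) and a positive kill control (0).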

[2] = system: MDA-MB-453
Method in brief: as §1

[3] = system: CAL-51
Method in brief: as §1

[4] = system: BT-474
Method in brief: as §1

[5] = system: CAL-120
Method in brief: as §1

[6] = system: HCC1143
Method in brief: as §1

[7] = system: BT-549
Method in brief: as §1

[8] = system: CAL-148
Method in brief: as §1

[9] = system: HCC1937
Method in brief: as §1

[10] = system: DU-4475
Method in brief: as §1

[11] = system: CAL-85-1
Method in brief: as §1

[12] = system: MDA-MB-231
Method in brief: as §1

[13] = system: MFM-223
Method in brief: as §1

[14] = system: HCC1599
Method in brief: as §1

[15] = system: MCF-10A
Method in brief: as §1

[16] = system: HDQ-P1
Method in brief: as §1

Row | SMILES | normalised response [1] [%] | normalised response [2] [%] | normalised response [3] [%] | normalised response [4] [%] | normalised response [5] [%] | normalised response [6] [%] | normalised response [7] [%] | normalised response [8] [%] | normalised response [9] [%] | normalised response [10] [%] | normalised response [11] [%] | normalised response [12] [%] | normalised response [13] [%] | normalised response [14] [%] | normalised response [15] [%] | normalised response [16] [%]
1 | COc1cc(CCc2cc(NC(=O)c3ccc(N4CC(C)NC(C)C4)cc3)n[nH]2)cc(OC)c1 (stereo unspecified) [AZD4547] (1000 nM) | 190 | 103 | 96.6 | 99.9 | 89.5 | 59.4 | 90 | 57.8 | 88.6 | 98.5 | 126 | 110 | 95.5 | 100 | 63.9 | 
2 | CCC/C=C/C=C/C(=O)O[C@H]1/C(=C/C(=O)OC)C[C@H]2C[C@H]([C@@H](C)O)OC(=O)C[C@H](O)C[C@@H]3C[C@H](OC(C)=O)C(C)(C)[C@](O)(C[C@@H]4C/C(=C/C(=O)OC)C[C@H](/C=C/C(C)(C)[C@]1(O)O2)O4)O3 [Bryostatin 1] (10 nM) | 116 | 99.9 | 92 | 106 | 102 | 116 | 139 | 108 | 83.2 | 106 | 91.3 | 117 | 88 | 115 | 109 | 
3 | CCC/C=C/C=C/C(=O)O[C@H]1/C(=C/C(=O)OC)C[C@H]2C[C@H]([C@@H](C)O)OC(=O)C[C@H](O)C[C@@H]3C[C@H](OC(C)=O)C(C)(C)[C@](O)(C[C@@H]4C/C(=C/C(=O)OC)C[C@H](/C=C/C(C)(C)[C@]1(O)O2)O4)O3 [Bryostatin 1] (100 nM) | 150 | 104 | 104 | 93.1 | 99.8 | 53.9 | 122 | 105 |  | 112 | 64.6 | 120 | 104 | 118 | 103 | 73.7
4 | CO[C@@H](C(=O)N1Cc2[nH]nc(NC(=O)c3ccc(N4CCN(C)CC4)cc3)c2C1)c1ccccc1 [Danusertib] (10000 nM) | 55.9 | 112 | 22.9 | 91.6 | 28.7 | 127 | 53.1 | 90.5 |  | 102 | 67.3 | 93.2 | 94.9 | 106 | 57.6 | 48
5 | Nc1cccc2c1CN(C1CCC(=O)NC1=O)C2=O (stereo unspecified) [Lenalidomide] (1000 nM) | 122 | 103 | 104 | 99.8 | 96.9 | 111 | 125 |  | 113 | 103 | 92.2 | 109 | 99.6 | 105 | 108 | 104
6 | Nc1cccc2c1CN(C1CCC(=O)NC1=O)C2=O (stereo unspecified) [Lenalidomide] (10000 nM) | 138 | 99.8 | 102 | 102 | 97.7 | 119 | 117 |  | 97.7 | 100 | 90.7 | 108 | 80.3 | 103 | 91.8 | 98.5
7 | Nc1ccccc1NC(=O)c1ccc(CNc2nccc(-c3cccnc3)n2)cc1 [Mocetinostat] (1000 nM) | 62.9 | 99.2 | 67 | 96 | 95.2 | 98.2 | 103 | 98.8 | 105 | 93 | 101 | 81.3 | 92.4 | 83.2 | 106 | 
8 | COc1nc(N)nc2c1ncn2[C@@H]1O[C@H](CO)[C@@H](O)[C@@H]1O [Nelarabine] (1000 nM) | 102 | 104 | 99.3 | 96.4 | 89 |  | 128 | 87.2 | 100 | 94.7 | 108 | 106 | 89.8 | 90.3 | 98.8 | 78.7
9 | O=C(CCBr)N1CCN(C(=O)CCBr)CC1 [Pipobroman] (1000 nM) | 84.6 | 90.5 | 106 | 100 | 98.9 |  | 98.2 |  | 93.2 | 101 | 106 | 96.7 | 94 | 93.6 | 103 | 100
10 | O=C(CCBr)N1CCN(C(=O)CCBr)CC1 [Pipobroman] (10000 nM) | 134 | 96.5 | 101 | 100 | 91.5 |  | 98.9 | 96.9 | 105 | 96.9 | 77.6 | 83.1 |  | 97.4 | 88.8 | 104
11 | C[C@]12C=CC(=O)C=C1CC[C@@H]1[C@@H]2[C@@H](O)C[C@@]2(C)[C@H]1CC[C@]2(O)C(=O)CO [Prednisolone] (1000 nM) | 156 |  | 113 | 99.6 | 98.7 | 112 | 116 | 104 | 122 | 102 | 98.9 | 142 | 95.8 | 100 | 101 | 
12 | CC[C@@]1(O)C(=O)OCc2c1cc1n(c2=O)Cc2cc3c(CN(C)C)c(O)ccc3nc2-1 [Topotecan] (1000 nM) | -478 | 108 | 18.9 | 96.6 | 85 | 76.7 | 90.6 | 12 | 95.1 | 83.2 | 67.8 |  | 90.7 | 81.3 | 92.2 | 
